The results in this text go back to patent publication US8614217B2 (priority 2008, dated 2013).

Molecules are shown by their SMILES.

A short description of the first data set: log P(HCOOH) (HPLC/MS). Type of data set: physicochemical. As to conditions: HPLC on reversed phase columns, EEC directive 79/831 Annex V.A8; pH 2.7, 0.1% formic acid in water / acetonitrile gradient.
Turning to `Cn1nnnc1C(=NOCc1csc(NC(=O)CCC2CCCCC2)n1)c1ccccc1` [Example 206], the log p is reported as 4.3.

As to `Cn1nnnc1C(=NOCc1cccc(NC(=O)c2cccs2)n1)c1ccccc1` [Example 214], the log p is given as 3.21. Same read-out and setting: under `Cn1nnnc1C(=NOCc1cccc(NC(=O)CSCc2ccccc2)n1)c1ccccc1` [Example 218] stands 3.73. The compound `Cn1nnnc1C(=NOCc1cccc(NC(=O)CCCc2ccsc2)n1)c1ccccc1` [Example 221] gave a log p of 3.7. In the case of `Cc1nnnn1C(=NOCc1csc(NC(=O)CCCC2CCCCC2)n1)c1ccccc1` [Example 229], the log p stood at 4.82. `Cn1nnnc1C(=NOCc1csc(NC(=O)Cc2ccsc2)n1)c1cccc(F)c1` [Example 233]: the log p is reported as 3.21. The compound `Cn1nnnc1C(=NOCc1csc(NC(=O)OCC(Cl)(Cl)Cl)n1)c1ccccc1` [Example 245] gave a log p of 3.7.

The same data set, now with this note: HPLC on reversed phase columns, EEC directive 79/831 Annex V.A8; pH 2.7 with 0.1% formic acid in water and acetonitrile.
In turn, `Cn1nnnc1C(=NOCc1csc(NC(=O)COc2ccccc2Cl)n1)c1ccccc1` [Example 247] registered a log p of 3.61. On the same count and under the same terms, the same measure for `Cn1nnnc1C(=NOCc1csc(NC(=O)c2cccc(Cl)c2)n1)c1ccccc1` [Example 248]: 3.73; for `Cn1nnnc1C(=NOCc1csc(NC(=O)COc2cccc(Cl)c2)n1)c1ccccc1` [Example 249]: 3.7. The same measure, in the same setting: the same measure for `Cn1nnnc1C(=NOCc1csc(NC(=O)COc2ccc(Cl)cc2)n1)c1ccccc1` [Example 250]: 3.68; for `CCCCc1ccc(C(=O)Nc2nc(CON=C(c3ccccc3)c3nnnn3C)cs2)cc1` [Example 268]: 4.68. On the same count and under the same terms, the same measure for `CCOc1ccc(C(=O)Nc2nc(CON=C(c3ccccc3)c3nnnn3C)cs2)cc1` [Example 271]: 3.64. `Cn1nnnc1C(=NOCc1csc(NC(=O)CC23CC4CC(CC(C4)C2)C3)n1)c1ccccc1` [Example 278] displayed a log p of 4.69. The same measure, in the same setting: the same measure for `CC1CCC(C(C)C)C(OCC(=O)Nc2nc(CON=C(c3ccccc3)c3nnnn3C)cs2)C1` (centres unmarked) [Example 284]: 5.39; for `COCCOCC(=O)Nc1nc(CON=C(c2ccccc2)c2nnnn2C)cs1` [Example 286]: 2.54; for `Cn1nnnc1C(=NOCc1csc(NC(=O)COc2ccccc2-c2ccccc2)n1)c1ccccc1` [Example 289]: 4.32.

For the compound `COC(=O)CCCCC(=O)Nc1nc(CON=C(c2cccc(F)c2)c2nnnn2C)cs1` [Example 298], the log p is 2.94. In turn, `COCCOC(=O)Nc1nc(CON=C(c2cccc(F)c2)c2nnnn2C)cs1` [Example 301] showed a log p of 2.66.

Turning to `Cc1ccc(C(=O)Nc2cccc(CON=C(c3ccccc3)c3nnnn3C)n2)cc1` [Example 306], the log p was 3.65.

Compound `Cc1ccccc1C(=O)Nc1cccc(CON=C(c2ccccc2)c2nnnn2C)n1` [Example 307] displayed a log p of 3.5. The same measure, in the same setting: under `CCOc1cccc(C(=O)Nc2cccc(CON=C(c3ccccc3)c3nnnn3C)n2)c1` [Example 313] stands 3.79; under `COc1ccccc1C(=O)Nc1nc(CON=C(c2ccccc2)c2nnnn2C)cs1` [Example 322], 3.5. The same measure, in the same setting: under `Cn1nnnc1C(=NOCc1csc(NC(=O)c2ccccc2OC(F)(F)F)n1)c1ccccc1` [Example 325] stands 3.61; under `Cc1ccccc1C(=O)Nc1nc(CON=C(c2ccccc2)c2nnnn2C)cs1` [Example 327], 3.41; under `Cn1nnnc1C(=NOCc1cccc(NC(=O)c2ccccc2OC(F)(F)F)n1)c1cccc(F)c1` [Example 328], 3.9. The compound `Cn1nnnc1C(=NOCc1cccc(NC(=O)c2ccc(F)cc2)n1)c1cccc(F)c1` [Example 329] displayed a log p of 3.57. Compound `Cc1ccccc1C(=O)Nc1cccc(CON=C(c2cccc(F)c2)c2nnnn2C)n1` [Example 331] had a log p of 3.61. Still for that read-out and setting: the same measure for `Cn1nnnc1C(=NOCc1csc(NC(=O)c2ccc(Cl)cc2)n1)c1ccccc1` [Example 333]: 3.74. On the same count and under the same terms, the same measure for `Cc1ccc(C(=O)Nc2nc(CON=C(c3ccccc3)c3nnnn3C)cs2)cc1` [Example 335]: 3.59; for `Cn1nnnc1C(=NOCc1csc(NC(=O)c2cc(F)cc(F)c2)n1)c1ccccc1` [Example 340]: 3.63. Still for that read-out and setting: the same measure for `COc1ccccc1C(=O)Nc1cccc(CON=C(c2cccc(F)c2)c2nnnn2C)n1` [Example 345]: 3.79; for `Cc1ccc(C(=O)Nc2cccc(CON=C(c3cccc(F)c3)c3nnnn3C)n2)c(Cl)c1` [Example 354]: 3.9. With `Cn1nnnc1C(=NOCc1cccc(NC(=O)c2cccnc2Cl)n1)c1cccc(F)c1` [Example 360], the log p amounted to 2.94.

Compound `Cn1nnnc1C(=NOCc1cccc(NC(=O)c2ccccc2Cl)n1)c1cccc(F)c1` [Example 362] yielded a log p of 3.57. Take `Cn1nnnc1C(=NOCc1cccc(NC(=O)c2ccccc2Br)n1)c1cccc(F)c1` [Example 365]: the log p is on record as 3.59.

`Cn1nnnc1C(=NOCc1cccc(NC(=O)c2ccccc2F)n1)c1cccc(F)c1` [Example 366]: the log p is on record as 3.65. On the same count and under the same terms, the same measure for `C#CCCOC(=O)Nc1cccc(CON=C(c2cccc(F)c2)c2nnnn2C)n1` [Example 374]: 3.21.
